Data from US4423215A, “Method of preparing sodium salts of imidazoledicarboxylic acid substituted cephalosporin derivatives” (Ajinomoto Company, Inc., priority 1981, dated 1983).
Where a name gives a salt, the structure may show the parent alone. Read-outs that look alike come from different tables or passages of the source.

Assay: Acute toxicity, LD50 (mouse, i.v.)
Type: in vivo

SMILES | LD50 [mg/kg] | LD50 (disodium salt)
O=C(O)C1=C(C[n+]2ccc(CCS(=O)(=O)[O-])cc2)CS[C@@H]2[C@H](NC(=O)[C@H](NC(=O)c3[nH]cnc3C(=O)O)c3ccccc3)C(=O)N12 [dipotassium salt, 7B-[D--(-)-α-(4-carboxyimidazole-5-carboxyamide)-phenylacetamide]-3-(4-β-sulfoethyl-pyridinium)-methyl-3-cepham-4-carboxylic acid] | 500 to 1000 | –
O=C(O)C1=C(C[n+]2ccc(CCS(=O)(=O)[O-])cc2)CS[C@@H]2[C@H](NC(=O)[C@H](NC(=O)c3[nH]cnc3C(=O)O)c3ccccc3)C(=O)N12 [disodium salt, 7B-[D--(-)-α-(4-carboxyimidazole-5-carboxyamide)-phenylacetamide]-3-(4-β-sulfoethyl-pyridinium)-methyl-3-cepham-4-carboxylic acid, disodium salt] | – | more than 3 g/kg
